Assay: Solid-state stability of the crystalline form under stress conditions
Type: physicochemical
Details: 60±5° C. for 24 hours; 10 tons of pressure; UV light at 254nm for 24 hours; 75±5% relative humidity for 24 hours
Method: In third aspect of third embodiment, crystalline Form-R of Tafamidis of formula (I) is stable under stress conditions at 60±5° C. for 24 hours, 10 tons of pressure, under UV light at 254nm for 24 hours and higher humidity conditions of 75±5% relative humidity for 24 hours.

polymorphic stability under stress conditions (does not convert to any other polymorphic form): stable
Structure (SMILES): O=C(O)c1ccc2nc(-c3cc(Cl)cc(Cl)c3)oc2c1 [Form-R, 2-(3,5-dichlorophenyl)-1,3-benzoxazole-6-carboxylic acid]
